Data from patent publication US12377104B1, “Methods for treating a fatty liver disease” (Madrigal Pharmaceuticals, Inc., priority 2024, dated 2025).

System: NASH patients
Assay: MAESTRO-NASH: efficacy by baseline body weight and BMI
Assay type: in vivo, human
Conditions: for ≥30% Reduction in MRI-PDFF at Week 52, Assessment (%) / ≥120% Increase in SHBG at Week 52, Assessment (%): post hoc
Method: In the MAESTRO-NASH study, randomization to 80 mg and 100 mg doses was equal across all body weights. Analyses were conducted to provide additional evidence of a relationship between resmetirom dose, baseline body weight and body mass index (BMI), and safety/efficacy readouts. […] The only variable that determined exposure to resmetirom in the NASH population was body weight. […] Study median body weight was 100 kg. […] et al. (2024). CAP was stable over time, both doses showing a similar durable response (FIG. 30B).

For CC(C)c1cc(Oc2c(Cl)cc(-n3nc(C#N)c(=O)[nH]c3=O)cc2Cl)n[nH]c1=O [Resmetirom, 2-(3,5-dichloro-4-((5-isopropyl-6-oxo-1,6-dihydropyridazin-3-yl)oxy)phenyl)-3,5-dioxo-2,3,4,5-tetrahydro-1,2,4-triazine-6-carbonitrile], the “Discontinued Study Prior to Week 52: number” value (80 mg, 80-<90 kg) was 6, the “Discontinued Study Prior to Week 52: percentage (in parentheses)” value (80 mg, 80-<90 kg) was “(10.3)” and the “Week 52 MITT Consensus Fibrosis Improvement Responder: number” value (80 mg, 80-<90 kg) was 20. For the same compound, the “Week 52 MITT Consensus Fibrosis Improvement Responder: percentage (in parentheses)” value (80 mg, 80-<90 kg) was “(34.5)”, the “Week 52 MITT Consensus NASH Resolution Responder: number” value (80 mg, 80-<90 kg) was 17 and the “Week 52 MITT Consensus NASH Resolution Responder: percentage (in parentheses)” value (80 mg, 80-<90 kg) was “(29.3)”. The “Week 52 Paired Biopsies Consensus Fibrosis Improvement Responder: number” value (80 mg, 80-<90 kg) was 20, the “Week 52 Paired Biopsies Consensus Fibrosis Improvement Responder: percentage (in parentheses)” value (80 mg, 80-<90 kg) was “(40.8)” and the “Week 52 Paired Biopsies Consensus NASH Resolution Responder: number” value (80 mg, 80-<90 kg) was 17. The “Week 52 Paired Biopsies Consensus NASH Resolution Responder: percentage (in parentheses)” value (80 mg, 80-<90 kg) was “(34.7)”, the “≥30% reduction in MRI-PDFF at Week 52: number of patients” value (shortened to “≥30% reduction … number of patients”) (80 mg, 80-<90 kg) was 28 and the “≥30% reduction in MRI-PDFF at Week 52: percentage of patients (in parentheses)” value (80 mg, 80-<90 kg) was “(63.6)”. For the same compound, the “≥120% increase in SHBG at Week 52: number of patients” value (shortened to “≥120% increase … number of patients”) (80 mg, 80-<90 kg) was 30, the “≥120% increase in SHBG at Week 52: percentage of patients (in parentheses)” value (80 mg, 80-<90 kg) was “(56.6)” and the “Discontinued Study Prior to Week 52: number” value (80 mg, 90-<100 kg) was 6. The “Discontinued Study Prior to Week 52: percentage (in parentheses)” value (80 mg, 90-<100 kg) was “(10.2)”, the “Week 52 MITT Consensus Fibrosis Improvement Responder: number” value (80 mg, 90-<100 kg) was 15 and the “Week 52 MITT Consensus Fibrosis Improvement Responder: percentage (in parentheses)” value (80 mg, 90-<100 kg) was “(25.4)”. The “Week 52 MITT Consensus NASH Resolution Responder: number” value (80 mg, 90-<100 kg) was 15, the “Week 52 MITT Consensus NASH Resolution Responder: percentage (in parentheses)” value (80 mg, 90-<100 kg) was “(25.4)” and the “Week 52 Paired Biopsies Consensus Fibrosis Improvement Responder: number” value (80 mg, 90-<100 kg) was 15. The “Week 52 Paired Biopsies Consensus Fibrosis Improvement Responder: percentage (in parentheses)” value (80 mg, 90-<100 kg) was “(30.6)”, the “Week 52 Paired Biopsies Consensus NASH Resolution Responder: number” value (80 mg, 90-<100 kg) was 15 and the “Week 52 Paired Biopsies Consensus NASH Resolution Responder: percentage (in parentheses)” value (80 mg, 90-<100 kg) was “(30.6)”. For the same compound, the “≥30% reduction … number of patients” value (80 mg, 90-<100 kg) was 28, the “≥30% reduction in MRI-PDFF at Week 52: percentage of patients (in parentheses)” value (80 mg, 90-<100 kg) was “(62.2)” and the “≥120% increase … number of patients” value (80 mg, 90-<100 kg) was 28. For the same compound, the “≥120% increase in SHBG at Week 52: percentage of patients (in parentheses)” value (80 mg, 90-<100 kg) was “(52.8)”, the “Discontinued Study Prior to Week 52: number” value (80 mg, 100-<110 kg) was 3 and the “Discontinued Study Prior to Week 52: percentage (in parentheses)” value (80 mg, 100-<110 kg) was “(6.5)”. The “Week 52 MITT Consensus Fibrosis Improvement Responder: number” value (80 mg, 100-<110 kg) was 8, the “Week 52 MITT Consensus Fibrosis Improvement Responder: percentage (in parentheses)” value (80 mg, 100-<110 kg) was “(17.4)” and the “Week 52 MITT Consensus NASH Resolution Responder: number” value (80 mg, 100-<110 kg) was 13. The “Week 52 MITT Consensus NASH Resolution Responder: percentage (in parentheses)” value (80 mg, 100-<110 kg) was “(28.3)”, the “Week 52 Paired Biopsies Consensus Fibrosis Improvement Responder: number” value (80 mg, 100-<110 kg) was 8 and the “Week 52 Paired Biopsies Consensus Fibrosis Improvement Responder: percentage (in parentheses)” value (80 mg, 100-<110 kg) was “(22.2)”. The “Week 52 Paired Biopsies Consensus NASH Resolution Responder: number” value (80 mg, 100-<110 kg) was 13, the “Week 52 Paired Biopsies Consensus NASH Resolution Responder: percentage (in parentheses)” value (80 mg, 100-<110 kg) was “(36.1)” and the “≥30% reduction … number of patients” value (80 mg, 100-<110 kg) was 23. For the same compound, the “≥30% reduction in MRI-PDFF at Week 52: percentage of patients (in parentheses)” value (80 mg, 100-<110 kg) was “(67.6)”, the “≥120% increase … number of patients” value (80 mg, 100-<110 kg) was 14 and the “≥120% increase in SHBG at Week 52: percentage of patients (in parentheses)” value (80 mg, 100-<110 kg) was “(34.1)”. For the same compound, the “Discontinued Study Prior to Week 52: number” value (80 mg, <80 kg) was 6, the “Discontinued Study Prior to Week 52: percentage (in parentheses)” value (80 mg, <80 kg) was “(10.0)” and the “Week 52 MITT Consensus Fibrosis Improvement Responder: number” value (80 mg, <80 kg) was 17. The “Week 52 MITT Consensus Fibrosis Improvement Responder: percentage (in parentheses)” value (80 mg, <80 kg) was “(28.3)”, the “Week 52 MITT Consensus NASH Resolution Responder: number” value (80 mg, <80 kg) was 15 and the “Week 52 MITT Consensus NASH Resolution Responder: percentage (in parentheses)” value (80 mg, <80 kg) was “(25.0)”. For the same compound, the “Week 52 Paired Biopsies Consensus Fibrosis Improvement Responder: number” value (80 mg, <80 kg) was 17, the “Week 52 Paired Biopsies Consensus Fibrosis Improvement Responder: percentage (in parentheses)” value (80 mg, <80 kg) was “(34.7)” and the “Week 52 Paired Biopsies Consensus NASH Resolution Responder: number” value (80 mg, <80 kg) was 15. The “Week 52 Paired Biopsies Consensus NASH Resolution Responder: percentage (in parentheses)” value (80 mg, <80 kg) was “(30.6)”, the “≥30% reduction … number of patients” value (80 mg, <80 kg) was 34 and the “≥30% reduction in MRI-PDFF at Week 52: percentage of patients (in parentheses)” value (80 mg, <80 kg) was “(73.9)”. The “≥120% increase … number of patients” value (80 mg, <80 kg) was 39, the “≥120% increase in SHBG at Week 52: percentage of patients (in parentheses)” value (80 mg, <80 kg) was “(72.2)” and the “≥30% Reduction in MRI-PDFF at Week 52, Assessment (%)” value (80 mg, body weight >100 kg) was 56.7%. For the same compound, the “≥120% Increase in SHBG at Week 52, Assessment (%)” value (80 mg, body weight >100 kg) was 29.6%, the “≥30% Reduction in MRI-PDFF at Week 52, Assessment (%)” value (80 mg, body weight ≤100 kg) was 66.9% and the “≥120% Increase in SHBG at Week 52, Assessment (%)” value (80 mg, body weight ≤100 kg) was 60.9%. The “Discontinued Study Prior to Week 52: number” value (80 mg, ≥110 kg) was 19, the “Discontinued Study Prior to Week 52: percentage (in parentheses)” value (80 mg, ≥110 kg) was “(19.2)” and the “Week 52 MITT Consensus Fibrosis Improvement Responder: number” value (80 mg, ≥110 kg) was 17. The “Week 52 MITT Consensus Fibrosis Improvement Responder: percentage (in parentheses)” value (80 mg, ≥110 kg) was “(17.2)”, the “Week 52 MITT Consensus NASH Resolution Responder: number” value (80 mg, ≥110 kg) was 17 and the “Week 52 MITT Consensus NASH Resolution Responder: percentage (in parentheses)” value (80 mg, ≥110 kg) was “(17.2)”. The “Week 52 Paired Biopsies Consensus Fibrosis Improvement Responder: number” value (80 mg, ≥110 kg) was 17, the “Week 52 Paired Biopsies Consensus Fibrosis Improvement Responder: percentage (in parentheses)” value (80 mg, ≥110 kg) was “(22.7)” and the “Week 52 Paired Biopsies Consensus NASH Resolution Responder: number” value (80 mg, ≥110 kg) was 17. The “Week 52 Paired Biopsies Consensus NASH Resolution Responder: percentage (in parentheses)” value (80 mg, ≥110 kg) was “(22.7)”, the “≥30% reduction … number of patients” value (80 mg, ≥110 kg) was 33 and the “≥30% reduction in MRI-PDFF at Week 52: percentage of patients (in parentheses)” value (80 mg, ≥110 kg) was “(51.6)”. The “≥120% increase … number of patients” value (80 mg, ≥110 kg) was 21, the “≥120% increase in SHBG at Week 52: percentage of patients (in parentheses)” value (80 mg, ≥110 kg) was “(28.0)” and the “Discontinued Study Prior to Week 52: number” value (100 mg, 80-<90 kg) was 4. For the same compound, the “Discontinued Study Prior to Week 52: percentage (in parentheses)” value (100 mg, 80-<90 kg) was “(8.2)”, the “Week 52 MITT Consensus Fibrosis Improvement Responder: number” value (100 mg, 80-<90 kg) was 13 and the “Week 52 MITT Consensus Fibrosis Improvement Responder: percentage (in parentheses)” value (100 mg, 80-<90 kg) was “(26.5)”. For the same compound, the “Week 52 MITT Consensus NASH Resolution Responder: number” value (100 mg, 80-<90 kg) was 16, the “Week 52 MITT Consensus NASH Resolution Responder: percentage (in parentheses)” value (100 mg, 80-<90 kg) was “(32.7)” and the “Week 52 Paired Biopsies Consensus Fibrosis Improvement Responder: number” value (100 mg, 80-<90 kg) was 13. For the same compound, the “Week 52 Paired Biopsies Consensus Fibrosis Improvement Responder: percentage (in parentheses)” value (100 mg, 80-<90 kg) was “(31.7)”.
